The values that follow come from US20040002460A1, “Spheron components useful in determining compounds capable of treating symptoms of Alzheimer's disease, and treatments and animal models produced therefrom” (priority 2002, published 2004).

Each structure is given as a SMILES string.

The data set is described as follows: in vitro.

Procedure: The spheron component peptides in phosphate buffered saline (PBS) were incubated alone and in combination into glioma cell cultures and neuroblastoma cell cultures. Controls of
Cryopreserved glioma and neuroblastoma cells were acquired from the American Type Culture Collection (ATCC), Virginia. Cells were thawed and diluted in suspension media and centrifuged at 700 rpm for 7 minutes at 4 C. Cell pellets then were resuspended in CACO-2 media and cultured in standard 75 or 175 cm^2 flasks at 37 C, 5% CO(2) until approximately confluent. The cells were then trypsinized and resuspended in CACO-2 media to achieve a final cell density of 1.5×10^5 cells/mL. 50 μL aliquots per sample were then added per well to 96 well plates.
For Experiment I, 50 μL of either PBS (phosphate buffered solution) (negative control), 100 μM tamoxifen in phosphate buffered saline PBS (positive control), or test article were added to each sample culture.
An MTT assay is a sensitive assay for the measurement of cell proliferation based upon the reduction of the tetrazolium salt 3,[4,5-dimetylthiazol-2-yl]-2,5-diphenyltetrazolium bromide (MTT). […] Plates were then agitated gently for 1 minute on a rotary shaker and the difference between emission absorbance of 570 nm and background absorbance of 650 nm was measured spectrophotometrically on an automated plate reader. […]

`CC/C(=C(\c1ccccc1)c1ccc(OCCN(C)C)cc1)c1ccccc1` [Tamoxifen, tamoxifen] came in with a viability at 4 days, 100 µM of 63%.
